A short description of the data set: Particle size analysis (wet analysis), Malvern Mastersizer 3000. It is filed as physicochemical. The conditions noted are these: starting material before micronisation. The protocol:
The pump speed was set to 3000 rpm. […] The dispersed particles were added to the dispersion unit to reach an obscuration of 5-15%. […] Six replicates were performed per measurement.

Setting [1] is: listed as unmicronised glycopyrrolate.

Where “and” joins values, the source holds several entries; their conditions need not be identical. Equal values may be shown once.

In turn, `C[N+]1(C)CCC(OC(=O)C(O)(c2ccccc2)C2CCCC2)C1` (stereo not drawn) [Unmicronised glycopyrrolate, glycopyrrolate] showed a D10 of 2.89 μm, a D50 of 16.0 μm and a D90 of 49.0 μm. In addition, under setting [1], the D10 is 1.09 μm, the D50 is reported as 2.90 μm and the D90 is 10.4 μm.

Consider magnesium stearate, for which the D10 was 2.8 μm and 2.06 μm; the D50 was 8.8 μm and 6.57 μm; the D90 was 27.4 μm and 19.9 μm.
